Consider nine molecules from ChEMBL document CHEMBL1201862, “PubChem BioAssay data set” (2004).

The source made the active and inactive calls.

Holding throughout (type): functional
In one experiment the target is Aurora kinase B (Homo sapiens, UniProt Q96GD4).
The target in experiment [1] is Cyclin-dependent kinase 19 (Homo sapiens, UniProt Q9BWU1). The experiment can be described thus: Navigating the Kinome. Panel member name: CDC2L6.
For the next experiment, the target named is Aurora kinase A (Homo sapiens, UniProt O14965).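 Also: value from the Navigating the Kinome kinase panel profiling, panel entry STK6.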
For experiment [2], the target named is T1, Sentrin-specific protease 8 (Homo sapiens, UniProt Q96LD8).
T1 sequence (Q96LD8 whole entry): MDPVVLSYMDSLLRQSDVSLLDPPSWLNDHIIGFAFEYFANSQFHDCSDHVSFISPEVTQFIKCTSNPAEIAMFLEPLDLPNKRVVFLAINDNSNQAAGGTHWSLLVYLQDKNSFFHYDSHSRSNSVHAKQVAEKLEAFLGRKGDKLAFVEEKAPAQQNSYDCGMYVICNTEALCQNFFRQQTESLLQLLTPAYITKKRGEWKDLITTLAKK

For experiment [3], the target named is T1, Sentrin-specific protease 8. The source holds these as a separate data set.
The target in experiment [4] is T2, Orexin/Hypocretin receptor type 1 (Homo sapiens, UniProt O43613). The experiment can be described thus: Homogeneous Time Resolved Fluorescence (HTRF)-based cell-based high throughput dose response assay for antagonists of the orexin 1 receptor (OX1R; HCRTR1). [Related pubchem assays (depositor defined):AID434989, AID435008, AID463079, AID485270, AID492963, AID492964, AID492965, AID493232, AID504717, AID504718]. For orientation: Time-resolved FRET reads energy transfer from a long-lived donor to a nearby acceptor.

Experiment [5] addresses T3, Orexin receptor type 2 (Homo sapiens, UniProt O43614). The experiment can be described thus: Counterscreen assay for antagonists of the orexin 1 receptor (OX1R; HCRTR1): Fluorescence-based cell-based dose response assay for antagonists of the orexin 2 receptor (OX2R; HCRTR2), run by assay provider.
Experiment [6] in a line: Counterscreen for antagonists of the orexin 1 receptor (OX1R; HCRTR1): Fluorescence-based cell-based high throughput dose response assay to identify antagonists of the parental CHO cell line. [Related pubchem assays (depositor defined):AID434989, AID435008, AID463079, AID485270, AID492963, AID492964, AID492965, AID493232, AID504699, AID504701]. (Counterscreens check selectivity or assay interference.)

Experiment [7] addresses T2, Orexin/Hypocretin receptor type 1. As to the kind of experiment: Fluorescence-based cell-based high throughput dose response assay for antagonists of the orexin 1 receptor (OX1R; HCRTR1). [Related pubchem assays (depositor defined):AID434989, AID435008, AID463079, AID485270, AID492963, AID492964, AID492965, AID493232, AID504717, AID504718].
For the next experiment, the system named is CHO-K1. As to the kind of experiment: Counterscreen for antagonists of the orexin 1 receptor (OX1R; HCRTR1): Homogeneous time resolved fluorescence (HTRF)-based cell-based dose response assay to identify antagonists of the parental CHO-K1 cell line. [Related pubchem assays (depositor defined):AID434989, AID435008, AID463079, AID485270, AID492963, AID492964, AID492965, AID493232, AID504699, AID504701]. Particulars: Cricetulus griseus.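 Also: potency for inhibition of ATP-stimulated IP1 production as antagonists.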

Experiment [8] concerns the target T3, Orexin receptor type 2. As to the kind of experiment: Counterscreen assay for antagonists of the orexin 1 receptor (OX1R; HCRTR1): Homogeneous Time Resolved Fluorescence (HTRF)-based cell-based dose response assay for antagonists of the orexin 2 receptor (OX2R; HCRTR2), run by assay provider.
In experiment [9] the target is Mitogen-activated protein kinase 13 (Homo sapiens, UniProt O15264).
In experiment [10] the target is ALK tyrosine kinase receptor (Homo sapiens, UniProt Q9UM73).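 Also: ALK tested as one member of a kinase panel screen.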
For a further experiment, the target named is Wee1-like protein kinase (Homo sapiens, UniProt P30291). As to the kind of experiment: Navigating the Kinome. Panel member name: WEE1.
The target of experiment [11] is Benomyl/methotrexate resistance protein (Candida albicans, UniProt P28873). As to the kind of experiment: CaMdr1 efflux pump inhibitor potency, dose response, singleplex, Cherry Pick1 hits (AID 588608).
The target of experiment [12] is Multidrug resistance protein CDR2 (Candida albicans (strain SC5314 / ATCC MYA-2876) (Yeast), UniProt P78595). The experiment can be described thus: CaCDR2 efflux pump inhibitors in yeast, dose response, S. cerevisiae AD1-8u, singleplex, Cherry Pick1 hits (AID 588604).
The target of experiment [13] is Neuropeptides B/W receptor type 1 (Homo sapiens, UniProt P48145). The experiment can be described thus: GPR7 antagonist potency, late-stage follow-up, cell-based, fluorescence, dose response, set 5 (AID 588566).
Experiment [14] deals with Melanin-concentrating hormone receptor 1 (Homo sapiens, UniProt Q99705). The experiment can be described thus: Late-stage fluorescence-based counterscreen for antagonists of the G-protein coupled receptor 7 (GPR7): cell-based dose response assay to identify antagonists of the melanin-concentrating hormone receptor 1 (MCHR1) Set 5.
The target of experiment [15] is Dual specificity mitogen-activated protein kinase kinase 2 (Homo sapiens, UniProt P36507). The experiment can be described thus: Navigating the Kinome. Panel member name: MAP2K2.
Experiment [16] addresses Serine/threonine-protein kinase pim-1 (Homo sapiens, UniProt P11309).
Experiment [17] addresses Mitogen-activated protein kinase kinase kinase kinase 2 (Homo sapiens, UniProt Q12851).
In experiment [18] the target is Cyclin-dependent kinase 8 (Homo sapiens, UniProt P49336). As to the kind of experiment: Navigating the Kinome. Panel member name: CDK8.
The target in experiment [19] is Hepatocyte growth factor receptor (Homo sapiens, UniProt P08581).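 Also: kinase panel profiling across the kinome, with MET as the panel member.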
The target of experiment [20] is Serine/threonine-protein kinase Chk1 (Homo sapiens, UniProt O14757).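 Also: measured as one member of a kinome-wide kinase profiling panel.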
For experiment [21], the target named is Dual specificity protein kinase CLK4 (Homo sapiens, UniProt Q9HAZ1).
In a further experiment the target is LIM domain kinase 1 (Homo sapiens, UniProt P53667). As to the kind of experiment: Navigating the Kinome. Panel member name: LIMK1.
Experiment [22] deals with Dual specificity tyrosine-phosphorylation-regulated kinase 1A (Homo sapiens, UniProt Q13627).
For experiment [23], the target named is Interleukin-1 receptor-associated kinase 4 (Homo sapiens, UniProt Q9NWZ3).
The target in experiment [24] is Cyclin-dependent kinase 1 (Homo sapiens, UniProt P06493).

T2 sequence (O43613 whole entry): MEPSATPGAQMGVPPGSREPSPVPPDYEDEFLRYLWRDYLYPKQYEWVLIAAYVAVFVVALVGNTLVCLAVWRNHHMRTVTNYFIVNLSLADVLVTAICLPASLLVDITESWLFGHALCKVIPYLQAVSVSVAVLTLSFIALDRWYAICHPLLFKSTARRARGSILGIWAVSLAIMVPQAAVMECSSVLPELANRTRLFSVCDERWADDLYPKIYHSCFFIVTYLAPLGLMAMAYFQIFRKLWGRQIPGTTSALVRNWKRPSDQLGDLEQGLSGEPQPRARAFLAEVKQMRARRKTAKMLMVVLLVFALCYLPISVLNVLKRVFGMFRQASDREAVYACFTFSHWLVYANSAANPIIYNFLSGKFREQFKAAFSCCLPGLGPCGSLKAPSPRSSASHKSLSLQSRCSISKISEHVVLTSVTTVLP
T3 sequence (O43614 whole entry): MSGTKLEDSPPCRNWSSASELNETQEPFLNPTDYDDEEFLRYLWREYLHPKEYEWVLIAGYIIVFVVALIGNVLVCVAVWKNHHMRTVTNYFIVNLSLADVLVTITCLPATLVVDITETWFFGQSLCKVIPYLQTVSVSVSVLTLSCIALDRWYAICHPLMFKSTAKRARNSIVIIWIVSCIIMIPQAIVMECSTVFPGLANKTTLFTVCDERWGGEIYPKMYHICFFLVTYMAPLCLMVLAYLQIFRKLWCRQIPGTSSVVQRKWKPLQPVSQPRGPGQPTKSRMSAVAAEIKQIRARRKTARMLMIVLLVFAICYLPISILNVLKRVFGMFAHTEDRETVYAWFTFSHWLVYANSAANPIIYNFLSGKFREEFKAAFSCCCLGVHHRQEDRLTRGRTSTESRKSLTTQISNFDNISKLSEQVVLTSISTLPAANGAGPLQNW
Sequence of Neuropeptides B/W receptor type 1 (P48145 whole entry): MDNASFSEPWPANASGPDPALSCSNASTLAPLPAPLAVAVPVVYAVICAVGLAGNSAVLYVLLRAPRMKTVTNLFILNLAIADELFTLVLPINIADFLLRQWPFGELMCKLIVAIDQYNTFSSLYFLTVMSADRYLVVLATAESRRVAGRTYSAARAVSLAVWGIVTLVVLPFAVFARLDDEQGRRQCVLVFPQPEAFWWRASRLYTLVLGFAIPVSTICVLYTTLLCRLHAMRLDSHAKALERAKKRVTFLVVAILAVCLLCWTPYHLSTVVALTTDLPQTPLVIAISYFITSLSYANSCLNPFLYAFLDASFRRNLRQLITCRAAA
Sequence of Aurora kinase B (Q96GD4 whole entry): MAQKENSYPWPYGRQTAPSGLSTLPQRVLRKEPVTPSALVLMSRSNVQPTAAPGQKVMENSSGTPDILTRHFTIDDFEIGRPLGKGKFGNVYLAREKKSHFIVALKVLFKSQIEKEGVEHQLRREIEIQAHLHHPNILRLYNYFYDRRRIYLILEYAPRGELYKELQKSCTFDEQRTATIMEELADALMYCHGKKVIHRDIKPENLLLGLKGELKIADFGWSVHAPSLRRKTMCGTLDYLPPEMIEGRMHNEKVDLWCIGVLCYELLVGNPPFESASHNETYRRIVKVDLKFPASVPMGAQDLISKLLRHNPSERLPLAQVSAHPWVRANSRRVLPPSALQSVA
Sequence of Multidrug resistance protein CDR2 (P78595 whole entry): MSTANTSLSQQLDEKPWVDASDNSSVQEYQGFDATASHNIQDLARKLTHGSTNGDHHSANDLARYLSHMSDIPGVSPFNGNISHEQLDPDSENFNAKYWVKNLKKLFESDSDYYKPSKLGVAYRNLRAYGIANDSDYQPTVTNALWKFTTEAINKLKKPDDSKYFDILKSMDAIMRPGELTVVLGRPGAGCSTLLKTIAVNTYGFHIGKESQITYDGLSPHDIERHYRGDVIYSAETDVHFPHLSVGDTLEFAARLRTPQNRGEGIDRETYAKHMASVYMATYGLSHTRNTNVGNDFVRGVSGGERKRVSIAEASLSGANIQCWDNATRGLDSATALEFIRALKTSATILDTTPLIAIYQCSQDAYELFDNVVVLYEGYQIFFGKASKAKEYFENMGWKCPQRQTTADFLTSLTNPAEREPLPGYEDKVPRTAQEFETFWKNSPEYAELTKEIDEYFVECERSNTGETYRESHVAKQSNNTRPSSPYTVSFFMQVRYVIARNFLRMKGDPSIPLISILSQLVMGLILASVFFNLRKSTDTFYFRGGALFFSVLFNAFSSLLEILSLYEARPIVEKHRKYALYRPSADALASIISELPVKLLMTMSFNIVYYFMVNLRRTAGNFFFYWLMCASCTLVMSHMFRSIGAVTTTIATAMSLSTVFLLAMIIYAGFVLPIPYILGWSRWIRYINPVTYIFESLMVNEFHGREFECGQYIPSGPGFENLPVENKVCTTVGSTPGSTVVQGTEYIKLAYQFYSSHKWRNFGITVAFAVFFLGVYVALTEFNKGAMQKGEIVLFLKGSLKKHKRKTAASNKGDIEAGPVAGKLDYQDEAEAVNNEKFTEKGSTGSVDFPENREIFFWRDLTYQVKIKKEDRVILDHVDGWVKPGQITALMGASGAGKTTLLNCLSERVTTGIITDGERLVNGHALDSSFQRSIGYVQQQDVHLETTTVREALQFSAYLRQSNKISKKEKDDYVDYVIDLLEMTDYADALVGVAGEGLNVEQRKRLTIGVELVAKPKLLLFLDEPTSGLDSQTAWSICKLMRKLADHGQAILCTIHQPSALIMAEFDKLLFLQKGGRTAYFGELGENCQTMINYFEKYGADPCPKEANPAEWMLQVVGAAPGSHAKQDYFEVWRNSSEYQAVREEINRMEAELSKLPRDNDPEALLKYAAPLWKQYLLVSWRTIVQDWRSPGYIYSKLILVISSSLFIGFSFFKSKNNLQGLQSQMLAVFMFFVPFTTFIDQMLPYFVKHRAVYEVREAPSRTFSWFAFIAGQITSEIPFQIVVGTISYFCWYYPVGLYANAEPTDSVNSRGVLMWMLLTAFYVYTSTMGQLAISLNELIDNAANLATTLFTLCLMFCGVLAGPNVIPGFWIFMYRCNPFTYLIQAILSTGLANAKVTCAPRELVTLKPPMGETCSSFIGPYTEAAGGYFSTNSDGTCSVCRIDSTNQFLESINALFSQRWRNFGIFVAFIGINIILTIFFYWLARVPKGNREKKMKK
Sequence of Cyclin-dependent kinase 8 (P49336 whole entry): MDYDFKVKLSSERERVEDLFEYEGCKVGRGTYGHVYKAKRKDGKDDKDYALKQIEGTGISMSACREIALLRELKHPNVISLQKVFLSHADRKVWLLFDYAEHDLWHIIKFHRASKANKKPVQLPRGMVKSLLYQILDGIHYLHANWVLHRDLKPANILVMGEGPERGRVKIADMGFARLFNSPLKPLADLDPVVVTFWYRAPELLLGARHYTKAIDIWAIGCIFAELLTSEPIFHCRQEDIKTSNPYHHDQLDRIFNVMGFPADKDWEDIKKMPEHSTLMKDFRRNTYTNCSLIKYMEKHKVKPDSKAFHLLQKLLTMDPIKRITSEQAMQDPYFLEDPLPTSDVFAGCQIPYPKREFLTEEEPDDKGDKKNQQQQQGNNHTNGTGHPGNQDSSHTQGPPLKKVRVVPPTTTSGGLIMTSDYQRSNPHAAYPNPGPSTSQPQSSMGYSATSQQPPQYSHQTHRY
Sequence of Serine/threonine-protein kinase pim-1 (P11309 whole entry): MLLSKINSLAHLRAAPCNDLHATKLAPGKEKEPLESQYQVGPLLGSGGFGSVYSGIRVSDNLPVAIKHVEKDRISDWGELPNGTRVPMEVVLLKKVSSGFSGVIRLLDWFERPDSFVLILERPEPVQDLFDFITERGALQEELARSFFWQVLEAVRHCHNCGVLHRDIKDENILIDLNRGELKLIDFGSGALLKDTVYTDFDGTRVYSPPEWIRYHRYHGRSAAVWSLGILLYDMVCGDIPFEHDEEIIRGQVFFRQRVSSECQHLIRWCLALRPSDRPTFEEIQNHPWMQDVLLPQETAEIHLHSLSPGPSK
Sequence of Aurora kinase A (O14965 whole entry): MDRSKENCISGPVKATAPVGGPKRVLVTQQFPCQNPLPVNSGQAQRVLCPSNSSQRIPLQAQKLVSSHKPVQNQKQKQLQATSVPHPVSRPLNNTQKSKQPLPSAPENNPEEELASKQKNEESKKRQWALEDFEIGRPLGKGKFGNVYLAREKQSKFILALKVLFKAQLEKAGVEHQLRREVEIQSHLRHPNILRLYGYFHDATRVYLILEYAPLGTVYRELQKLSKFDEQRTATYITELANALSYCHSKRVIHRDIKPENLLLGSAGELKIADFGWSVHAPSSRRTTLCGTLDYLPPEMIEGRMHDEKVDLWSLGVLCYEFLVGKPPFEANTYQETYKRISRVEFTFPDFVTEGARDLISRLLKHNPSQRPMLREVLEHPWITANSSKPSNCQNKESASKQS
Sequence of LIM domain kinase 1 (P53667 whole entry, the tested form may be a part): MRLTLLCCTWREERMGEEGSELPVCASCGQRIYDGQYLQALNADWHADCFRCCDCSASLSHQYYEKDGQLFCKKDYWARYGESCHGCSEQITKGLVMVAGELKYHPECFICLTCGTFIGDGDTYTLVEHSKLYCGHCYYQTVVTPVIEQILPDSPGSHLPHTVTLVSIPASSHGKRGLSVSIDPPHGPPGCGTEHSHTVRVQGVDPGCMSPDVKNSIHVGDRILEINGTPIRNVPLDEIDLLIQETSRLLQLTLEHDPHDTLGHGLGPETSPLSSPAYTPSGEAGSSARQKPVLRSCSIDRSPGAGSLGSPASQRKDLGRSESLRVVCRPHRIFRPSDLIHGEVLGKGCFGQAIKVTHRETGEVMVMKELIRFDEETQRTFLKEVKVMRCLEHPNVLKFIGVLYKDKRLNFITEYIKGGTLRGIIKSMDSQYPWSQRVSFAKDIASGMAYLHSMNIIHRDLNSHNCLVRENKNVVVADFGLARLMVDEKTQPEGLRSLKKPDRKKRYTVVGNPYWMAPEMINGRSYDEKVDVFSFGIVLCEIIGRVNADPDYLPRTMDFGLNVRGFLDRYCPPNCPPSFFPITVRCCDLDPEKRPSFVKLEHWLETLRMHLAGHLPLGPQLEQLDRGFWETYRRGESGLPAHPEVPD

One may read the Ki as the dissociation constant of the complex between target and ligand, obtained from inhibition or displacement. As for `Cc1ccc(F)c(NC(=O)Nc2ccc(-c3cc(CO)c(F)c4[nH]nc(N)c34)cc2)c1`, the results for the Ki (on Aurora kinase B; in experiment [1]; on Aurora kinase A) were 0.01 µM (active), 2 µM (active) and 0.126 µM (active), respectively.

Usually IC50 stands for the concentration that gives 50% inhibition. `CCOc1cc(C(=S)N2CCOCC2)cc(Br)c1OS(=O)(=O)c1ccccc1`: the IC50 in experiment [2] is 8.6 µM (active); in experiment [3], 8.96 µM (active); in [4], 4.56 µM (active); on Orexin receptor type 2 [5], 6.2 µM (active); in experiment [6], > 49.8 µM (inactive); in experiment [7], 8.68 µM (active). In addition, the IC50 in the experiment with CHO-K1 is > 66.2 µM (inactive); on Orexin receptor type 2 [8] it was > 50 µM (inactive).

Regarding `Cc1cccc(NC(=O)Nc2ccc(-c3ccc4nccnc4c3N)cc2)c1`, the Ki in [9] is > 7.94 µM (inactive).

`CCN1CCN(c2ccc(Nc3nccc(Nc4ccc5[nH]ncc5c4)n3)cc2)CC1`: the Ki in experiment [10] was 1 µM (active); at Wee1-like protein kinase, 0.158 µM (active).

Broadly, the EC50 is the concentration needed to bring the measured effect to its halfway point. Take `CCN(CC)c1ccc(/C=C/c2cc(-c3ccccc3)c3ccccc3n2)cc1`: the concentration giving a half-maximal response (EC50) in experiment [11] is 3.32 µM (active); in [12] it was 16.1 µM (active).

As to `CCOc1ccc(Oc2c(Cl)c(C)nn(Cc3cccc4ccccc34)c2=O)cc1`, the half-inhibitory concentration (IC50) was 1.88 µM (active) in experiment [13] and 14.8 µM (inactive) in [14].

As to `Oc1ccc(Cl)cc1C1=NNC(c2ccc3c(c2)OCCO3)C1` (centres undefined), the Ki in experiment [15] was 3.16 µM (active); in experiment [16], 2 µM (active); in [17] it was 2.51 µM (active); in [18], 3.16 µM (active); in experiment [19], 1.26 µM (active).

For `O=C(O)c1cnc2sccn2c1=O`, the inhibitory constant (Ki) was 39.8 µM (active) in experiment [20], 39.8 µM (active) in experiment [21], 50.1 µM (active) at LIM domain kinase 1 and 63.1 µM (active) in experiment [22].

For the molecule `CS(=O)(=O)Nc1ccccc1-c1ccc2c(c1)Nc1ccccc1NC2=O`, the figures for the Ki in experiment [23] and in [24] were 3.98 µM (active) and 7.94 µM (active), respectively.
